Source: patent publication US20030023101A1, “Method for production of maleic anhydride” (priority 2001, published 2003)

Legend:
[1] = 20° C., normal pressure (1013 hPa); Chemical Handbook (Maruzen), Beilstein Online; cited from earlier work
[2] = Maximum dissolving concentration of organic solvent in water (Referential Example 1); format: physicochemical; details: solvent as solute in 80 g purified water, 20° C., visual observation
Protocol: One species of organic solvent or a mixture of two or more species of solvent to be used in this invention was selected by the following method. In a tightly closable glass vessel measuring 100 ml in inner volume and furnished with a lid, 80 g of purified water kept at a temperature of 20° C. was placed and stirred with a stirrer and meanwhile a given organic solvent or solvent mixture was added dropwise to the stirred water. The state of solution consequently assumed after one hour's standing was visually observed. When any residue of the solute was found in the solution, the confirmation of the solubility mentioned above was repeated, with the quantity of dropwise addition per round decreased. The minimum quantity of the organic solvent or the solvent mixture as the solute to be used for the dropwise addition was set at 0.02 g. […] Specifically, the magnitude found by the following formula,
(§1) Maximum dissolving concentration (% by weight)={Solute/(Solute+Solvent)}×100
is the maximum dissolving concentration contemplated by this invention. […] The present example concerns computation of the maximum dissolving concentration of a given solute in 80 g of a solvent in accordance with the formula mentioned above. The maximum dissolving concentration was determined at a solution temperature of 20° C. Incidentally, when two or more species of organic solvent are mixed and used in the distillation for azeotropic dehydration, the maximum dissolving concentration of the mixture is determined by the method described above.

[3] = Maximum dissolving concentration of maleic acid in the solvent (Referential Example 2); format: physicochemical; details: maleic acid as solute in 80 g solvent, 20° C., insoluble = residue even at 0.01 g
Protocol: (§2) In a tightly closable glass vessel measuring 100 ml in inner volume and furnished with a lid, 80 g of a given solvent kept at a temperature of 20° C. was placed and stirred with a stirrer and meanwhile maleic acid or fumaric acid of the special reagent grade as defined in the paragraph covering the determination of maximum dissolution concentration was added to the stirred solvent. The state of solution consequently assumed was visually confirmed. When the solute left any residue behind in the solution even after one hour's stirring, the sample was reported as insoluble. When the residue of the solute was found, the confirmation of the maximum dissolving concentration mentioned above was repeated, with the quantity of addition per round decreased. The minimum quantity of addition was set at 0.01 g. Thus, the maximum quantity of dropwise addition (weight of solute) which was recognized to have given rise to no residue of elute was determined and computed as the maximum dissolution concentration in 80 g of a given solvent. Specifically, the magnitude found by the following formula,
as §1
(§3) is the maximum dissolving concentration contemplated by this invention. When the elute left any residue behind in the solution even at the minimum quantity of dropwise addition of 0.01 g ([…]), the sample was reported as insoluble. Incidentally, the maximum dissolution concentration was measured at a solution temperature of 20° C.

[4] = Maximum dissolving concentration of fumaric acid in the solvent (Referential Example 2); format: physicochemical; details: fumaric acid as solute in 80 g solvent, 20° C., insoluble = residue even at 0.01 g
Protocol: as §2, §1, §3

Maximum dissolving concentration in water [2] [% by weight]	Maximum dissolving concentration in solvent, Maleic acid [3]	Maximum dissolving concentration in solvent, Fumaric acid [4]	Structure (SMILES)	Maximum dissolving concentration of the azeotropic solvent (1) in water [1] [% by weight]	also measured
–	–	–	CCC(=O)CC [3-pentanone]	4.6	–
0.05	0.62 % by weight	Insoluble	CC(C)CC(=O)CC(C)C [DIBK, diisobutyl ketone]	–	–
–	–	–	CCCCCC(C)=O [2-heptanone]	0.44	–
0.41	1.22 % by weight	0.02 % by weight	CC(C)C(=O)C(C)C [DIPK, diisopropylketone]	0.43	–
–	–	–	CCCC(=O)CC [3-hexnaone]	1.57	–
–	–	–	CCCCC(CC)CO (stereo not drawn) [2-ethyl-1-hexnol]	0.10	–
–	–	–	CCCCC(C)=O [2-hexanone]	1.75	–
–	–	–	C=CCOC(C)=O [allyl acetate]	2.8	–
–	–	–	CCCCCOC(C)=O [amyl acetate]	0.25	–
1.85	4.14 % by weight	0.14 % by weight	CC(=O)CC(C)C [MIBK, methyl isobutylketone]	1.91	–

Structure (SMILES)	Maximum dissolving concentration in water [2] [% by weight]	Maximum dissolving concentration in solvent, Maleic acid [3]	Maximum dissolving concentration in solvent, Fumaric acid [4]	Maximum dissolving concentration of the azeotropic solvent (1) in water [1] [% by weight]	also measured
Cc1ccccc1C [o-Xylene, o-xylene]	0.02	Insoluble	Insoluble	–	Maximum dissolving concentration in water ([2]; listed as o-xylene): low solubility in water; Maximum dissolving concentration in solvent, Maleic acid ([3]; listed as o-xylene): did not dissolve; Maximum dissolving concentration in solvent, Fumaric acid ([4]; listed as o-xylene): did not dissolve
